In patent US10239832B2, “N-(1-hydroxy-3-(pyrrolidinyl)propan-2-yl)pyrrolidine-3-carboxamide derivatives as glucosylceramide synthase inhibitors” (BIOMARIN PHARMACEUTICAL INC., priority 2013, dated 2019):
pIC50: −log10 of the molar value.

What follows are molecules tested against T1, GCS (Canis lupus familiaris, UniProt A0A8I3MXG6) (assay: GCS enzymatic assay (MDCK cell lysate, NBD-ceramide to glucosylceramide, LC/MS)). Conditions: Table 2; class symbols A, B, C; the table does not say which of the assays; read-out: Data Range (IC50 values).
T1 construct: endogenous in cells; host or cells: MDCK (Madin-Darby canine kidney) cells, whole-cell lysate
T1 sequence (A0A8I3MXG6 1-394): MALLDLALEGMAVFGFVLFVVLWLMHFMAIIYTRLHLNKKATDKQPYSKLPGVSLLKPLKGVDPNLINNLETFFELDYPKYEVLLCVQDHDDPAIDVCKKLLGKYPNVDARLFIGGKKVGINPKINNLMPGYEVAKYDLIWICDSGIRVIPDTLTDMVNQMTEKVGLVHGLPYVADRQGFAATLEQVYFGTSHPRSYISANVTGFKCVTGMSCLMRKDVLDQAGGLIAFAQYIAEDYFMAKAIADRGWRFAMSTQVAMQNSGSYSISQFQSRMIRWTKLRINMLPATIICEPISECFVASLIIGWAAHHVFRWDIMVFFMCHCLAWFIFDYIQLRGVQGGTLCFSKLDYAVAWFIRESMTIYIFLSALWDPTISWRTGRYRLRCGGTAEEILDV
Format: biochemical, canine
Outline: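 IC50 or percent inhibition came from LC/MS/MS (ESI+, MRM) of NBD-ceramide and glucosylceramide, with tolbutamide as internal standard. The reaction used MDCK (canine) cell lysate as the enzyme source and was ended with acetonitrile. Mock wells received 0.1% DMSO.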

pIC50 | Structure (SMILES)
7.52 to 9.00 | O=C(N[C@H](CN1CCCC1)[C@H](O)c1ccc(OC2CCOCC2)c(Cl)c1)[C@@H]1CCN(c2ccc(Cl)cc2)C1 [Compound 45, (R)-N-((1R,2R)-1-(3-chloro-4-((tetrahydro-2H-pyran-4-yl)oxy)phenyl)-1-hydroxy-3-(pyrrolidin-1-yl)propan-2-yl)-1-(4-chlorophenyl)pyrrolidine-3-carboxamide]
7.52 to 9.00 | O=C(N[C@H](CN1CCC1)[C@H](O)c1cc(F)c2c(c1)OCCO2)[C@@H]1CCN(c2ccc3cc(F)ccc3c2)C1 [Compound 47, (R)-N-((1R,2R)-3-(azetidin-1-yl)-1-(8-fluoro-2,3-dihydrobenzo[b][1,4]dioxin-6-yl)-1-hydroxypropan-2-yl)-1-(6-fluoronaphthalen-2-yl)pyrrolidine-3-carboxamide]
7.52 to 9.00 | O=C(N[C@H](CN1CCC1)[C@H](O)c1cc(F)c2c(c1)OCCO2)C1CCN(c2ccc3cc(F)ccc3c2)C1 (stereo partly drawn) [Compound 47A, N-((1R,2R)-3-(azetidin-1-yl)-1-(8-fluoro-2,3-dihydrobenzo[b][1,4]dioxin-6-yl)-1-hydroxypropan-2-yl)-1-(6-fluoronaphthalen-2-yl)pyrrolidine-3-carboxamide]
7.00 to 7.52 | O=C(N[C@H](CN1CCC1)[C@H](O)c1cc(F)c2c(c1)OCCO2)[C@H]1CCN(c2ccc3cc(F)ccc3c2)C1 [Compound 47B, (S)-N-((1R,2R)-3-(azetidin-1-yl)-1-(8-fluoro-2,3-dihydrobenzo[b][1,4]dioxin-6-yl)-1-hydroxypropan-2-yl)-1-(6-fluoronaphthalen-2-yl)pyrrolidine-3-carboxamide]
7.52 to 9.00 | O=C(N[C@H](CN1CCCC1)[C@H](O)c1cc(F)c2c(c1)OCCO2)[C@@H]1CCN(c2ccccn2)C1 [Compound 48, (R)-N-((1R,2R)-1-(8-fluoro-2,3-dihydrobenzo[b][1,4]dioxin-6-yl)-1-hydroxy-3-(pyrrolidin-1-yl)propan-2-yl)-1-(pyridin-2-yl)pyrrolidine-3-carboxamide]
7.00 to 7.52 | CN1CCC(Oc2ccc([C@@H](O)[C@@H](CN3CCCC3)NC(=O)[C@@H]3CCN(c4ccc(Cl)cc4)C3)cc2Cl)CC1 [Compound 49, (R)-N-((1R,2R)-1-(3-chloro-4-((1-methylpiperidin-4-yl)oxy)phenyl)-1-hydroxy-3-(pyrrolidin-1-yl)propan-2-yl)-1-(4-chlorophenyl)pyrrolidine-3-carboxamide]

Same assay, conditions: Table 2; class symbols D, E, F, NA (not active); the table does not say which of the assays

Data Range (% inhibition) | Structure (SMILES)
F (1-49% (or less than 50%)) | O=C(N[C@H](CN1CCCC1)[C@H](O)c1ccc2c(c1)OCCO2)C1CCN(c2nc3c(s2)CCCC3)C1 (stereo partly drawn) [Compound 36F, N-((1R,2R)-1-(2,3-dihydrobenzo[b][1,4]dioxin-6-yl)-1-3-hydroxy-(pyrrolidin-1-yl)propan-2-yl)-1-(4,5,6,7-tetrahydrobenzo[d]thiazol-2-yl)pyrrolidine-3-carboxamide]
F (1-49% (or less than 50%)) | O=C(N[C@H](CN1CCCCC1)[C@H](O)c1ccc2c(c1)OCCO2)[C@@H]1CCN(c2ccc(Cl)cc2)C1 [Compound 43, (R)-1-(4-chlorophenyl)-N-((1R,2R)-1-(2,3-dihydrobenzo[b][1,4]dioxin-6-yl)-1-hydroxy-3-(piperidin-1-yl)propan-2-yl)pyrrolidine-3-carboxamide]
F (1-49% (or less than 50%)) | O=C(N[C@H](CN1CCCCC1)[C@H](O)c1ccc2c(c1)OCCO2)C1CCN(c2ccc(Cl)cc2)C1 (stereo partly drawn) [Compound 43D, 1-(4-chlorophenyl)-N-((1R,2R)-1-(2,3-dihydrobenzo[b][1,4]dioxin-6-yl)-1-hydroxy-3-(piperidin-1-yl)propan-2-yl)pyrrolidine-3-carboxamide]
F (1-49% (or less than 50%)) | O=C(N[C@H](CN1CCCCC1)[C@H](O)c1ccc2c(c1)OCCO2)[C@H]1CCN(c2ccc(Cl)cc2)C1 [Compound 43E, (S)-1-(4-chlorophenyl)-N-((1R,2R)-1-(2,3-dihydrobenzo[b][1,4]dioxin-6-yl)-1-hydroxy-3-(piperidin-1-yl)propan-2-yl)pyrrolidine-3-carboxamide]
F (1-49% (or less than 50%)) | O=C(N[C@H](CN1CCCCC1)[C@H](O)c1cc(F)c2c(c1)OCCO2)[C@@H]1CCN(c2ccc(Cl)cc2)C1 [Compound 44, (R)-1-(4-chlorophenyl)-N-((1R,2R)-1-(8-fluoro-2,3-dihydrobenzo[b][1,4]dioxin-6-yl)-1-hydroxy-3-(piperidin-1-yl)propan-2-yl)pyrrolidine-3-carboxamide]
F (1-49% (or less than 50%)) | O=C(N[C@H](CN1CCCC1)[C@H](O)c1ccc(OC2CCOCC2)c(Cl)c1)[C@H]1CCN(c2ccc(Cl)cc2)C1 [Compound 45A, (S)-N-((1R,2R)-1-(3-chloro-4-((tetrahydro-2H-pyran-4-yl)oxy)phenyl)-1-hydroxy-3-(pyrrolidin-1-yl)propan-2-yl)-1-(4-chlorophenyl)pyrrolidine-3-carboxamide]
F (1-49% (or less than 50%)) | O=C(N[C@H](CN1CCCCC1)[C@H](O)c1ccc2c(c1)OCCO2)[C@@H]1CCN(c2ccc(F)cc2)C1 [Compound 46, (R)-N-((1R,2R)-1-(2,3-dihydrobenzo[b][1,4]dioxin-6-yl)-1-hydroxy-3-(piperidin-1-yl)propan-2-yl)-1-(4-fluorophenyl)pyrrolidine-3-carboxamide]
F (1-49% (or less than 50%)) | O=C(N[C@H](CN1CCCCC1)[C@H](O)c1ccc2c(c1)OCCO2)C1CCN(c2ccc(F)cc2)C1 (stereo partly drawn) [Compound 46A, N-((1R,2R)-1-(2,3-dihydrobenzo[b][1,4]dioxin-6-yl)-1-hydroxy-3-(piperidin-1-yl)propan-2-yl)-1-(4-fluorophenyl)pyrrolidine-3-carboxamide]
F (1-49% (or less than 50%)) | O=C(N[C@H](CN1CCCC1)[C@H](O)c1cc(F)c2c(c1)OCCO2)[C@H]1CCN(c2ccccn2)C1 [Compound 48A, (S)-N-((1R,2R)-1-(8-fluoro-2,3-dihydrobenzo[b][1,4]dioxin-6-yl)-1-hydroxy-3-(pyrrolidin-1-yl)propan-2-yl)-1-(pyridin-2-yl)pyrrolidine-3-carboxamide]

Structure (SMILES) | Data Range (% inhibition)
O=C(N[C@H](CN1CCCC1)[C@H](O)c1ccc2c(c1)OCCO2)[C@H]1CCN(c2nc3c(s2)CCCC3)C1 [Compound 36G, (S)-N-((1R,2R)-1-(2,3-dihydrobenzo[b][1,4]dioxin-6-yl)-1-hydroxy-3-(pyrrolidin-1-yl)propan-2-yl)-1-(4,5,6,7-tetrahydrobenzo[d]thiazol-2-yl)pyrrolidine-3-carboxamide] | NA (not active—a negative value was generated for % inhibition)
O=C(N[C@H](CN1CCCCC1)[C@H](O)c1cc(F)c2c(c1)OCCO2)[C@H]1CCN(c2ccc(Cl)cc2)C1 [Compound 44C, (S)-1-(4-chlorophenyl)-N-((1R,2R)-1-(8-fluoro-2,3-dihydrobenzo[b][1,4]dioxin-6-yl)-1-hydroxy-3-(piperidin-1-yl)propan-2-yl)pyrrolidine-3-carboxamide] | NA (not active—a negative value was generated for % inhibition)
O=C(N[C@H](CN1CCCCC1)[C@H](O)c1ccc2c(c1)OCCO2)[C@H]1CCN(c2ccc(F)cc2)C1 [Compound 46B, (S)-N-((1R,2R)-1-(2,3-dihydrobenzo[b][1,4]dioxin-6-yl)-1-hydroxy-3-(piperidin-1-yl)propan-2-yl)-1-(4-fluorophenyl)pyrrolidine-3-carboxamide] | NA (not active—a negative value was generated for % inhibition)
